In patent US20100234377A1 (priority 2007, published 2010):
Like-named read-outs stand apart in the source and are kept apart here.

Target: T1, human Prostaglandin D Synthase (GST2) (Homo sapiens, UniProt O60760)
T1 construct: the open reading frame of human Prostaglandin D Synthase was amplified from cDNA; made in house; host or cells: E. coli TOP10F'
Assay: Homogeneous biochemical assay of human Prostaglandin D Synthase (GST2) based on its glutathion-S-transferase activity (GSH conjugation to monochlorobimane, fluorescence)
From the text: Homogeneous, Biochemical Assay Monitoring the Activity of Human Prostaglandin D Synthase Based on the Glutathion-S-Transferase Activity of the Enzyme
Prostaglandin D2 synthesis by Prostaglandin D synthase (GST2) requires transfer of Glutathion (GSH) to the substrate, Prostaglandin H2. […] Since the Prostaglandin D2 synthesis is absolutely dependent on the GST activity of the enzyme, assays monitoring the GST activity should allow to identify specific inhibitors of Prostaglandin D2 synthetic activity. The assay principle used is based on enzymatic conjugation of GSH to Monochlorobimane (MCB), that becomes fluorescent upon this chemical modification. Therefore, the enzymatic reaction can be monitored by total fluorescence measurement.
In brief, the open reading frame of human Prostaglandin D Synthase was amplified from cDNA using the primer pair:
This construct allows prokaryotic expression of Prostaglandin D Synthase as fusion protein with a N-terminal hexa-histidine tag, referred to as NHis-Prostaglandin D Synthase.
Expression of NHis-Prostaglandin D Synthase was in E. coli TOP10F′ (Invitrogen, Germany, cat. no. C3030-03). […] When the culture had reached a density corresponding to an A600 of 0.6, an equal volume of room temperature LB/ampicillin was added. […] Cells harvested by centrifugation were resuspended in 50 mM tris(hydroxymethyl)aminomethane hydrochloride pH 7.5 (Tris/HCl, Sigma, cat. no. T5941).
Removal of unbound material was with 100 ml lysis buffer. Elution was with 50 ml of 50 mM Tris/HCl pH 7.5, 300 mM imidazol (Sigma, Germany, cat. no. I2399)/HCl pH 7.5). […] Aliquots were shock frozen in liquid nitrogen and stored at −80° C.
All assay components were diluted in reaction buffer, 50 mM MES/KOH (pH 6.1), 0.7 mM GSH (Sigma, G4251), 2 mM MgCl2 (Sigma, M2670), 0.05% Pluronic F127 (Sigma, P2443), and stored on ice prior to use. Compounds were diluted in 90% DMSO yielding final assay concentrations from the picomolar to three digit micromolar range.
Total fluorescent measurement was carried out with excitation and emission wavelength of 390 and 460 nm, respectively (BMG Fluostar Optima).

[1] = given beside the compound name in Examples 1 to 167, read-out: Potency Range (GST2 IC50)
[2] = Table 2, comparative examples, read-out: GST2 inhibition IC50

T1 sequence (O60760 whole entry): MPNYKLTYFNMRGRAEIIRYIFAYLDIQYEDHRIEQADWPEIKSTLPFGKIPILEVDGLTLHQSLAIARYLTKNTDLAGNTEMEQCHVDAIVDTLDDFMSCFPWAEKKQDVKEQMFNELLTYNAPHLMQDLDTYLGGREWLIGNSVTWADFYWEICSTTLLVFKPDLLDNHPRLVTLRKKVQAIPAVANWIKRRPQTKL

IC50 [1] [nM] | IC50 [2] [nM] | SMILES
11 to 100 |  | O=C(Nc1nc(-c2ccccn2)cs1)N1CCN(C(=O)c2cccc(F)c2)CC1 [Compound 73, 4-(3-Fluoro-benzoyl)-piperazine-1-carboxylic acid (4-pyridin-2-yl-thiazol-2-yl)-amide]
101 to 1000 |  | O=C(c1cccc(F)n1)N1CCN(C(=S)Nc2ccc(OC(F)F)cc2)CC1 [Compound 18, 4-(6-Fluoro-pyridine-2-carbonyl)-piperazine-1-carbothioic acid (4-difluoromethoxy-phenyl)-amide]
11 to 100 |  | COC(=O)c1cccc(NC(=O)N2CCN(C(=O)c3cccc(F)c3)CC2)c1 [Compound 34, 3-{[4-(3-Fluoro-benzoyl)-piperazine-1-carbonyl]-amino}-benzoic acid methyl ester]
101 to 1000 |  | COC(=O)c1ccc(NC(=O)N2CCN(C(=O)c3cccc(F)c3)CC2)cc1F [Compound 95, 2-Fluoro-4-{[4-(3-fluoro-benzoyl)-piperazine-1-carbonyl]-amino}-benzoic acid methyl ester]
101 to 1000 |  | O=C(Nc1ccc(NC(=O)N2CCN(C(=O)c3cccc(F)c3)CC2)cc1)c1cccnc1 [Compound 122, 4-(3-Fluoro-benzoyl)-piperazine-1-carboxylic acid {4-[(pyridine-3-carbonyl)-amino]-phenyl}-amide]
11 to 100 |  | O=C(Nc1ccc(N2CCN(c3ccccn3)CC2)c(F)c1)N1CCN(C(=O)c2cccc(F)c2)CC1 [Compound 146, 4-(3-Fluoro-benzoyl)-piperazine-1-carboxylic acid [3-fluoro-4-(4-pyridin-2-yl-piperazin-1-yl)-phenyl]-amide]
11 to 100 |  | O=C(Nc1nc2ccc(C(=O)N3CCOCC3)cc2s1)N1CCN(C(=O)c2cccc(F)c2)CC1 [Compound 139, 4-(3-Fluoro-benzoyl)-piperazine-1-carboxylic acid [6-(morpholine-4-carbonyl)-benzothiazol-2-yl]-amide]
101 to 1000 |  | O=C(Nc1ccc(-n2cccn2)c(F)c1)N1CCN(C(=O)c2cccc(F)c2)CC1 [Compound 143]
 | 180000 | O=C(Nc1ccc(F)cc1)N1CCN(C(=O)c2ccccc2Oc2ccccc2)CC1 [XIV, 4-(2-Phenoxy-benzoyl)-piperazine-1-carboxylic acid (4-fluoro-phenyl)-amide, reference compound]
1 to 10 |  | O=C(Nc1nc2ccc(Br)cc2s1)N1CCN(C(=O)c2cccc(F)c2)CC1 [Compound 68, 4-(3-Fluoro-benzoyl)-piperazine-1-carboxylic acid (6-bromo-benzothiazol-2-yl)-amide]
1 to 10 |  | Cc1ccc2nc(NC(=O)N3CCN(C(=O)c4cccc(F)c4)CC3)sc2c1 [Compound 80, 4-(3-Fluoro-benzoyl)-piperazine-1-carboxylic acid (6-methyl-benzothiazol-2-yl)-amide]
11 to 100 |  | O=C(Nc1nc2ccc(F)cc2s1)N1CCN(C(=O)c2cccc(F)c2)CC1 [Compound 66, 4-(3-Fluoro-benzoyl)-piperazine-1-carboxylic acid (6-fluoro-benzothiazol-2-yl)-amide]
101 to 1000 |  | O=C(Nc1ccc([N+](=O)[O-])cc1)N1CCN(C(=O)c2cc(F)ccc2F)CC1 [Compound 49, 4-(2,5-Difluoro-benzoyl)-piperazine-1-carboxylic acid (4-nitro-phenyl)-amide]
 | 28200 | COC(=O)c1ccccc1C(=O)N1CCN(C(=O)Nc2ccc(F)cc2)CC1 [XIII, 2-[4-(4-Fluoro-phenylcarbamoyl)-piperazine-1-carbonyl]-benzoic acid methyl ester, reference compound]

Second part, the compound before the results:

SMILES | IC50 [1] [nM] | IC50 [2] [nM]
O=C(Nc1nc(-c2ccccc2)ns1)N1CCN(C(=O)c2cccc(F)c2)CC1 [Compound 70, 4-(3-Fluoro-benzoyl)-piperazine-1-carboxylic acid (3-phenyl-[1,2,4]thiadiazol-5-yl)-amide] | 11 to 100 | 
CC(C)C(=O)Nc1ccc(NC(=O)N2CCN(C(=O)c3cccc(F)c3)CC2)cc1 [Compound 121, 4-(3-Fluoro-benzoyl)-piperazine-1-carboxylic acid (4-isobutyrylamino-phenyl)-amide] | 101 to 1000 | 
O=C(O)c1ccc(NC(=O)N2CCN(C(=O)c3cccc(F)c3)CC2)cc1 [Compound 100, 4-{[4-(3-Fluoro-benzoyl)-piperazine-1-carbonyl]-amino}-benzoic acid] | 101 to 1000 | 
CNC(=O)c1cccc(NC(=O)N2CCN(C(=O)c3cccc(F)c3)CC2)c1 [Compound 93, 4-(3-Fluoro-benzoyl)-piperazine-1-carboxylic acid (3-methylcarbamoyl-phenyl)-amide] | 101 to 1000 | 
O=C(Nc1cccc(NC(=O)N2CCN(C(=O)c3cccc(F)c3)CC2)c1)c1cc[n+]([O-])cc1 [Compound 110, 4-(3-Fluoro-benzoyl)-piperazine-1-carboxylic acid {3-[(1-oxy-pyridine-4-carbonyl)-amino]-phenyl}-amide] | 101 to 1000 | 
NC(=O)c1ccc(NC(=O)N2CCN(C(=O)c3cccc(F)c3)CC2)cc1F [Compound 104, 4-(3-Fluoro-benzoyl)-piperazine-1-carboxylic acid (4-carbamoyl-3-fluoro-phenyl)-amide] | 101 to 1000 | 
O=C(Nc1ccc(NC(=O)N2CCN(C(=O)c3cccc(F)c3)CC2)cc1)c1cccc[n+]1[O-] [Compound 115, 4-(3-Fluoro-benzoyl)-piperazine-1-carboxylic acid {4-[(1-oxy-pyridine-2-carbonyl)-amino]-phenyl}-amide] | 11 to 100 | 
O=C(c1ccccc1)N1CCN(C(=S)Nc2cccc3ccccc23)CC1 [Compound 5, 4-Benzoyl-piperazine-1-carbothioic acid naphthalen-1-ylamide] | 11 to 100 | 
O=C(Nc1cccc(Nc2ccc(F)cc2)c1)N1CCN(C(=O)c2cccc(F)c2)CC1 [Compound 167, 4-(3-Fluoro-benzoyl)-piperazine-1-carboxylic acid [3-(4-fluoro-phenylamino)-phenyl]-amide] | 101 to 1000 | 
N#Cc1cccc(NC(=O)N2CCN(C(=O)c3cccc(F)c3)CC2)c1 [Compound 35, 4-(3-Fluoro-benzoyl)-piperazine-1-carboxylic acid (3-cyano-phenyl)-amide] | 11 to 100 | 
O=C(c1ccc(F)cc1)N1CCN(C(=S)Nc2ccc(Oc3ccccc3)cc2)CC1 [Compound 9, 4-(4-Fluoro-benzoyl)-piperazine-1-carbothioic acid (4-phenoxy-phenyl)-amide] | 101 to 1000 | 
O=C(Nc1ccc(Oc2ccccc2)cc1)N1CCN(C(=O)c2cccc(F)c2)CC1 [Compound 26, 4-(3-Fluoro-benzoyl)-piperazine-1-carboxylic acid (4-phenoxy-phenyl)-amide] | 11 to 100 | 
O=C(Nc1cccc(S(=O)(=O)N2CCOCC2)c1)N1CCN(C(=O)c2cccc(F)c2)CC1 [Compound 92, 4-(3-Fluoro-benzoyl)-piperazine-1-carboxylic acid [3-(morpholine-4-sulfonyl)-phenyl]-amide] | 101 to 1000 | 
O=C(Nc1ccc([N+](=O)[O-])c(F)c1)N1CCN(C(=O)c2cccc(F)c2)CC1 [Compound 134, 4-(3-Fluoro-benzoyl)-piperazine-1-carboxylic acid (3-fluoro-4-nitro-phenyl)-amide] | 101 to 1000 | 
O=C(Nc1ccc(NS(=O)(=O)c2ccccc2)cc1)N1CCN(C(=O)c2cccc(F)c2)CC1 [Compound 125, 4-(3-Fluoro-benzoyl)-piperazine-1-carboxylic acid (4-benzenesulfonylamino-phenyl)-amide] | 11 to 100 | 
CC(C)(C)c1ccc(NC(=S)N2CCN(C(=O)c3ccc(F)cc3)CC2)cc1 [Compound 8, 4-(4-Fluoro-benzoyl)-piperazine-1-carbothioic acid (4-tert-butyl-phenyl)-amide] | 11 to 100 | 
CC(C)C(=O)N1CCN(c2ccc(NC(=O)N3CCN(C(=O)c4cccc(F)c4)CC3)cc2F)CC1 [Compound 57, 4-(3-Fluoro-benzoyl)-piperazine-1-carboxylic acid [3-fluoro-4-(4-isobutyryl-piperazin-1-yl)-phenyl]-amide] | 11 to 100 | 
CS(=O)(=O)N(c1ccc(NC(=O)N2CCN(C(=O)c3cccc(F)c3)CC2)cc1)S(C)(=O)=O [Compound 129, N-{4-[bis(methylsulfonyl)amino]phenyl}-4-(3-fluorobenzoyl)piperazine-1-carboxamide] | 11 to 100 | 
CCCCNC(=O)N1CCN(c2ccc(NC(=O)N3CCN(C(=O)c4cccc(F)c4)CC3)cc2F)CC1 [Compound 53] | 11 to 100 | 
CN(C)c1ccc(NC(=S)N2CCN(C(=O)c3cccnc3)CC2)cc1 [Compound 14, 4-(Pyridine-3-carbonyl)-piperazine-1-carbothioic acid (4-dimethylamino-phenyl)-amide] | 101 to 1000 | 
